Data as given in article PMC9775191, “A Subset Screen of the Compounds Australia Scaffold Library Identifies 7-Acylaminodibenzoxazepinones as Potent and Selective Hits for Anti-Giardia Drug Discovery” (Biomedicines, 2022).

Tested on: G. duodenalis BRIS/91/HEPU/1279
Assay: Primary Giardia screen at 10 µM (live-cell imaging, automated counting)
Assay type: cell-based, Giardia duodenalis
Details: for % Inhibition n=1 48h / % Inhibition n=1 24h: first singlicate assay; for % Inhibition n=2 24h / % Inhibition n=2 48h: re-assessment
How it was run: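 Singlicate, 10 μM final, 0.2% DMSO; sealed chambers, 3% O2/5% CO2/N2. Counts by live-cell imaging at 24 h and 48 h. % growth vs vehicle, media background subtracted; Z' per plate.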

Row | Compound | % Inhibition n=1 48h [%] | other results
1 | O=C(NCc1cccc(C(F)(F)F)c1)C1CCCN(c2nccnc2Oc2ccccc2)C1 (centres unmarked) [SN00797123] | 15.6 | –
2 | O=[N+]([O-])c1ccccc1Sc1nnnn1C1CCOCC1 [SN00782002] | 15.2 | Average % Inhibition 24h: 6.2%; % Inhibition n=1 24h: 12.3%; % Inhibition n=2 24h: 0.0%; Average % Inhibition 48h: 8.6%; % Inhibition n=2 48h: 2.0%
3 | O=C(Nc1cnc(-c2ccccc2)nc1)c1ccccc1C(F)(F)F [SN00799772] | 0.0 | –
4 | CCn1cc(C2OCCC2CNC/C=C/c2ccccc2OC)cn1 (centres unmarked) [SN00782244] | 28.6 | –
5 | Cc1oc(-c2ccco2)nc1CN1CCc2cnc(C(C)C)nc2C1 [SN00807954] | 0.1 | –
6 | Cc1cc(C)n2nc(C(=O)N3CCC(CC(N)=O)CC3)nc2n1 [SN00775259] | 0.0 | –
7 | Cc1ccc(S(=O)(=O)n2ccn(C(=O)c3ccccc3C)c2=O)cc1 [SN00789027] | 0.0 | –
8 | c1ccc(CCN2CCC(c3c[nH]c4ncccc34)CC2)nc1 [SN00780706] | 11.5 | –
9 | Cc1ccc(-c2cc(C(=O)NCc3cn(C)nc3C)c3ccccc3n2)cc1C [SN00783737] | 0.0 | –
10 | CCCn1c(C2CCN(C(=O)Nc3ccc(F)cc3)CC2)cc(=O)n2nccc12 [SN00798971] | 19.1 | –
11 | CC1=NN(C(=O)COc2ccc(C)c(C)c2)C(O)(C(F)(F)F)C1 (centres unmarked) [SN00783577] | 0.0 | –
12 | Cc1ccc(NC(=O)c2nnc(C3CCCN3C(=O)NC3CCCC3)s2)cc1 (centres unmarked) [SN00790483] | 4.4 | –
13 | O=S(=O)(c1ccc(F)cc1)N1CCN=C1N1CCCCC1 [SN00790442] | 15.7 | –
14 | Cc1ccc(S(=O)(=O)C2(C(=O)Nc3cn[nH]c3)CCC2)cc1 [SN00778835] | 0.0 | –
15 | COc1ccc(-c2cc(C(=O)N(C)Cc3ccco3)[nH]n2)cc1 [SN00788220] | 44.3 | –
16 | COCCN1C(=O)c2oc3ccccc3c2OCC1(C)C(=O)NCc1ccccc1OC (centres unmarked) [SN00791365] | 21.5 | –
17 | Cc1nn(Cc2ccccc2)c2sc(C(=O)N3CCN(C(=O)N4CCCCC4)CC3)cc12 [SN00774391] | 14.0 | –
18 | O=C(NCc1ccc(Cl)cc1)c1noc2c1CCCC2 [SN00784503] | 0.0 | –
19 | O=C(CSc1ccccc1)NCC1(N2CCCCC2)CCOCC1 [SN00807846] | 1.8 | –
20 | C=C(C)CN1Cc2ccccc2CC1c1nnc(CC)o1 (centres unmarked) [SN00783147] | 0.0 | –
21 | Cc1cc2c(cc1C)N(CC(=O)NCc1cccs1)C(=O)C1CCCC1=N2 (centres unmarked) [SN00789389] | 11.1 | –
22 | COC(=O)c1ccc(F)c(S(=O)(=O)NC2(c3nc(C)cs3)CCC2)c1 [SN00772601] | 27.1 | –
23 | COc1ccc(S(=O)(=O)N2CC=C(C(=O)NCc3ccc(C)cc3)CC2)cc1 [SN00785474] | 23.4 | –
24 | CC1(C)C(NC(=O)Nc2ccc([N+](=O)[O-])cc2)C2CCCOC21 (centres unmarked) [SN00782105] | 16.3 | –
25 | Cc1ccc(CNC(=O)c2ccc3c(c2)CCN3S(=O)(=O)c2ccc(C)cc2)cc1 [SN00785985] | 38.5 | –
26 | COc1ccc(-c2ccnc3c(C(=O)NCc4ccc5c(c4)OCO5)cnn23)cc1OC [SN00802455] | 16.8 | –

Row | Compound | % Inhibition n=1 48h [%] | other results
27 | Cc1ccc([N+](=O)[O-])cc1NC(=O)N1CCC(n2cncn2)CC1 [SN00781334] | 0.0 | –
28 | CCc1nnc(-c2cc3ccccc3n2CC(=O)N2CCCc3ccccc32)o1 [SN00789262] | 0.0 | –
29 | Cc1ccc(CNc2nc(-c3ccco3)nn2C(=O)c2cccc([N+](=O)[O-])c2)cc1 [SN00786222] | 6.6 | –
30 | CN1CCN(Cc2nc3ccccc3c(=O)n2Cc2nc(-c3cccc([N+](=O)[O-])c3)cs2)CC1 [SN00770541] | 11.4 | –
31 | O=C(Cc1ccc2c(c1)CCC2)N1CCC(n2cncn2)CC1 [SN00783222] | 6.3 | –
32 | CC(C)(C)Nc1c(-c2ccc(F)cc2)nc2sc(N3CCN(Cc4ccccn4)CC3)nn12 [SN00795823] | 32.2 | –
33 | O=C(c1cnccn1)N1CCCC1c1nc(-c2ccccc2)no1 (centres unmarked) [SN00801675] | 0.0 | –
34 | O=C(c1ccc2nncn2c1)N1CCc2[nH]nc(C(F)(F)F)c2C1 [SN00779777] | 3.6 | –
35 | O=C(Cc1csc(N2CCCNC2=O)n1)Nc1ccccc1OC(F)F [SN00781228] | 8.7 | –
36 | CCc1nc(-c2cc(S(=O)(=O)NCc3ccc(F)c(Cl)c3)c(C)s2)cs1 [SN00798443] | 50.2 | Average % Inhibition 24h: 15.2%; % Inhibition n=1 24h: 16.9%; % Inhibition n=2 24h: 13.6%; Average % Inhibition 48h: 43.8%; % Inhibition n=2 48h: 37.5%
37 | CCC1CCCCN1C(=O)Cn1c(C(=O)OC)cc2occc21 (centres unmarked) [SN00785479] | 8.8 | –
38 | CC(=O)N1CCc2cc(C(=O)CN3CCN(c4ccc(C(F)(F)F)cc4[N+](=O)[O-])CC3)ccc21 [SN00785201] | 3.8 | –
39 | O=c1n(Cc2ccc(F)cc2)nnn1-c1ccccc1 [SN00777772] | 48.5 | –
40 | CCCn1nccc1-c1csc(S(=O)(=O)NC(C)C)c1 [SN00797311] | 9.7 | –
41 | CCC(C)NC(=O)c1cc2c(=O)n(Cc3ccccc3)ccc2s1 (centres unmarked) [SN00797832] | 11.3 | –
42 | O=C(Cn1c(-c2ccccn2)noc1=O)C12CC3CC(CC(C3)C1)C2 [SN00781381] | 21.7 | –
43 | COc1cccc(-c2noc(Nc3cccc(C)c3)n2)c1 [SN00791775] | 0.0 | –
44 | CN(C)C(=O)CN1CCCN(Cc2ncc(C(C)(C)C)o2)CC1 [SN00778763] | 1.9 | –
45 | CN1CCC(Oc2ncccc2C(=O)N2CCOCC2)CC1 [SN00800013] | 15.5 | –
46 | Cc1nn(-c2nc(-c3ccccc3)cs2)c(O)c1CC(=O)N1CCN(c2ccc(F)cc2)CC1 [SN00786652] | 0.0 | –
47 | O=C(NCCN1CCCCCC1=O)C1CCCN1C(=O)C1CCCC1 (centres unmarked) [SN00774624] | 0.0 | –
48 | COc1ccc(S(=O)(=O)n2nc(-c3cc(OC)c(OC)c(OC)c3)cc2N)cc1OC [SN00785320] | 21.7 | –
49 | COc1ccc(CCn2c(=O)c3ncccc3n(Cc3ccc(C)cc3)c2=O)cc1OC [SN00789585] | 1.7 | –
50 | O=C1CC(c2noc(-c3ccc(F)cc3)n2)CN1c1ccc(F)cc1 (centres unmarked) [SN00801778] | 9.0 | –
51 | COc1ccc(C2CCCN2C(=O)c2cnn(-c3ccc(C(F)(F)F)cn3)c2C)cc1 (centres unmarked) [SN00774591] | 35.2 | –
52 | O=C(C1CCCN(c2cnccn2)C1)N1CCN(Cc2cccs2)CC1 (centres unmarked) [SN00769722] | 17.2 | –

Row | Compound | % Inhibition n=1 48h [%] | other results
53 | CCN(CC)CCCC(C)NC(=O)c1cc(-c2ccco2)on1 (centres unmarked) [SN00802522] | 3.7 | –
54 | O=c1onc(-c2cccnc2)n1Cc1noc(C2CC2)n1 [SN00772712] | 0.0 | –
55 | CC1CCCCN1S(=O)(=O)c1ccc(NC(=O)c2cc(-c3cccs3)on2)cc1 (centres unmarked) [SN00786280] | 10.1 | –
56 | O=C(C(c1ccccc1)c1ccccc1)N1CCCC(c2nnc3n2CCCCC3)C1 (centres unmarked) [SN00771924] | 8.5 | –
57 | CCOC(=O)N1CCc2c(nc(-c3ccc(C)cc3)n(CC(=O)Nc3ccc(Cl)cc3)c2=O)C1 [SN00795497] | 41.5 | –
58 | CC(NC(=O)Cn1nc(-c2ccccc2)c2ccccc2c1=O)c1ccccc1 (centres unmarked) [SN00783639] | 3.0 | –
59 | COc1ccc(-c2nnc(CN3C(=O)NC(C)(CCC(C)C)C3=O)o2)cc1 (centres unmarked) [SN00773994] | 0.0 | –
60 | O=C(NCc1ccccc1Cl)[C@H]1[C@H]2C(=O)N(Cc3cccs3)C[C@]23C=C[C@H]1O3 (relative stereo) [SN00784242] | 22.4 | –
61 | O=C(c1ccc(Cl)c(S(=O)(=O)NCC2CCCO2)c1)N1CC=C(c2ccccc2)CC1 (centres unmarked) [SN00769948] | 6.8 | –
62 | c1cnc(N2CCCN(c3nc4ccccc4o3)CC2)nc1 [SN00778442] | 32.5 | –
63 | COc1cccc(N2CCN(C(=O)c3ccc4noc(-c5ccccc5)c4c3)CC2)c1 [SN00777397] | 56.5 | Average % Inhibition 24h: 9.9%; % Inhibition n=1 24h: 17.2%; % Inhibition n=2 24h: 2.5%; Average % Inhibition 48h: 28.2%; % Inhibition n=2 48h: 0.0%
64 | O=C1C(=O)N(Cc2coc(-c3ccc(Cl)cc3)n2)C(=O)N1Cc1ccccc1 [SN00777999] | 18.6 | –
65 | CCN1CCN(c2ccc(-c3nc(-c4cccc(F)c4)no3)cn2)CC1 [SN00796649] | 48.2 | –
66 | CCCNC(=O)N1CCN(Cc2nc3cccnc3n2-c2ccc(CC)cc2)CC1 [SN00796091] | 0.0 | –
67 | CC(C)c1ccc(-c2noc(N3CCC(C(=O)N4CCN(C5CCCCC5)CC4)CC3)n2)cc1 [SN00793072] | 11.6 | –
68 | CC(=O)N1c2ccc(S(=O)(=O)N3CCCCC3)cc2CC1C(=O)N1CCCCC1 (centres unmarked) [SN00791893] | 0.0 | –
69 | O=C1OCCN1CCCN1CCCC(c2nc3ccccc3o2)C1 (centres unmarked) [SN00780555] | 0.0 | –
70 | O=C(Cn1nc2n(c1=O)CCCC2)NCc1ccccc1Br [SN00801654] | 6.0 | –
71 | Cc1cccc(-c2nc3sc(N4CCCCC4)nn3c2NC(=O)C2CC2)c1 [SN00799546] | 23.2 | –
72 | O=C(C1=C(O)C(=O)N(CCN2CCOCC2)C1c1ccncc1)c1ccccc1 (centres unmarked) [SN00776455] | 0.7 | –
73 | O=[N+]([O-])c1cccc(S(=O)(=O)N2CCCCCC2c2cccs2)c1 (centres unmarked) [SN00793864] | 25.8 | –
74 | O=C(NCCc1ccccc1)c1ccc(Nc2nc3ccccc3n3nnnc23)cc1 [SN00784739] | 8.5 | –
75 | COc1ccccc1CCC(=O)N1CCN(c2ncnc3[nH]cnc23)CC1 [SN00787062] | 0.0 | –
76 | Cc1ccc(-n2nc(C)c3sc(N4CCCC(C(=O)NCC5CCCO5)C4)nc32)cc1 (centres unmarked) [SN00796250] | 2.9 | –
77 | CC1(C(=O)NCc2ccccc2)Cn2c(ccc2-c2ccco2)C(=O)N1CCc1ccco1 (centres unmarked) [SN00787709] | 0.0 | –
